The record followed here is patent publication EP0533352A2 (LYNXVALE LIMITED, priority 1991, dated 1993).

Structures are written as SMILES. Read-outs that look alike come from different tables or passages of the source.

The subject of assay [1] is Rabbit urinary bladder smooth muscle strips. The experiment in a line: Nerve mediated contractions of rabbit urinary bladder muscle strips induced by electrical field stimulation. The following applies: for effect on the frequency response curve: 1 to 40 Hz. In kind it is cell-based.
Assay [2] relates to carbachol (5x10⁻⁶M) induced muscle contraction. The experiment in a line: Carbachol mediated muscle contractions of rabbit bladder muscle strips. It counts as cell-based. The following applies: GABA: 10 strips, not in 6 strips, baclofen: 6 strips, not in 3 strips.

With `NCc1cc(=O)[nH]o1` [Muscimol, muscimol], in assay [1] (concentration range of 1x10⁻⁸ to 1x10⁻⁵M, n=5), the “inhibitory effect on nerve mediated muscle contraction” value is given as “no inhibitory effect”. Regarding `NCC(O)(CS(=O)(=O)O)c1ccc(Cl)cc1` (centres unmarked) [2-hydroxysaclofen], in assay [1], the “antagonism of the inhibition produced by GABA (change of EC₅₀)” value is “significant antagonism” and the “change in the maximum response of GABA” value is “no significant difference”.

As to `NC1=N[C@H](O)[C@H]2[C@H]3O[C@]4(O)O[C@@H]([C@@H](O)[C@@]2(N1)[C@@H]4O)[C@]3(O)CO` [tetrodotoxin], the “effect on contractions obtained by electrical field stimulation” value in assay [1] is reported as “abolishing the contractions”.

For the compound `NCC(CC(=O)O)c1ccc(Cl)cc1` (racemic) [(±) baclofen], in assay [2], the “inhibition of carbachol induced muscle contraction” value is “able to inhibit the muscle contraction”. In assay [1], the “EC₅₀ for inhibition of muscle contraction induced by electrical field stimulation” value is recorded as 7.26 (±1.2)x10⁻⁶ M and the “maximum inhibition of muscle contraction induced by electrical field stimulation” value is reported as 26.5(±1.58) %. Further, the “effect on the frequency response curve” value in assay [1] (1x10⁻⁴M baclofen, n=13) is “significant inhibitory effect”. Consider `NCCCP(O)O` [3-aminopropylphosphonous acid], for which the EC50 in assay [1] (Oryctolagus cuniculus, average over seven experiments, preliminary experiments, read-out: EC₅₀ for inhibition of electrically stimulated contraction) worked out at 250 ± 160 nM. Further, the “maximum inhibition of muscle contraction induced by electrical field stimulation” value in assay [1] (percentage inhibition of control contraction, 10 Hz, 0.2 ms pulse width, 30V for 3 s, mean ± S.E.M.) came out at 45 ± 18%. Consider `NCCCC(=O)O` [GABA, gamma amino butyric acid], for which, in assay [1] (1x10⁻⁵ GABA, n=15), the “effect on the frequency response curve” value is “significant right shift”.
